# Data reported in patent US20150297552A1, “FERTILITY ENHANCING AGENT” (OCTAPAM LIMITED, priority 2012, published 2015).
# Assays:
# Wistar rats [1] = test: Reproductive function study, agents administered to male rats (Example 1); assay type: in vivo, rat; settings: for Amount of gestation female rats / Fertility index / Gestation index / Amount of embryonate female rats: administered to male rats; for Amount of embryonate female rats: of 20 females housed with males; for Amount of babies delivered by 1 female / Post-implantation loss / Postnatal loss after 3 weeks / Pre-implantation loss / Weight of newborn baby rats / Dynamics of babies' body weight, 1st week / Dynamics of babies' body weight, 2nd week / Dynamics of babies' body weight, 3rd week / Dynamics of babies' body weight, 4th week / Craniocaudal size of fetus / Fetus weight / Amount of dead fetuses / Amount of implantation sites / Amount of resorptions / Amount of viable fetuses / Amount of yellow bodies: 10 weeks; for Craniocaudal size of fetus / Fetus weight: 20th day of gestation; for Amount of dead fetuses / Amount of implantation sites / Amount of resorptions / Amount of viable fetuses / Amount of yellow bodies: females sacrificed on 20th day of gestation
# Description: 180 male and female Wistar rats were tested in the 110 experiments (initial body weight—180-200 g).
# Group of 60 male rats was grouped into 6 subgroups each including 10 animals. Each group was treated as follows: group 1—vegetable oil, group 2—β-cyclodextrin, group 3—the agent of present invention, 0.35 mg/kg (the prototype agent), group 4—medication, 0.70 mg/kg (the prototype agent), group 5—the agent of present invention in a clathrate complex, 0.35 mg/kg, group 6—the agent of present invention in a clathrate complex, 0.70 mg/kg.
# Male rats of the study subgroups were intragastrically given the above mentioned doses of the prototype agent and the agent of present invention in the clathrate complex form daily during 10 weeks (2-3 cycles of spermatozoa maturation). At the same time, animals of control groups were treated with corresponding amounts of placebo consisting of the vegetable oil or β-cyclodextrin. The placebo was chosen based on the fact that the prototype agent is an oil-soluble compound and the agent of present invention in the clathrate complex form is a water soluble compound. The drugs were administered once daily (at 10 a.m.).
# After completion of dosing 6 groups of animals were formed: • the first (vegetable oil)—20 control female rats were housed together with 10 control male rats; the second (β-cyclodextrin)—20 control female rats were housed together with 10 control male rats; the third (the prototype agent, 0.35 mg/kg)—20 study female rats housed together with 10 control male rats; • the fourth (the prototype, 0.70 mg/kg)—20 control female rats were housed together with 10 study male rats; • the fifth (the agent of present invention in the clathrate complex form 0.35 mg/kg)—20 study female rats were housed together with 10 control male rats; • the sixth (the agent of present invention in the clathrate complex form 0.70 mg/kg)—20 control female rats were housed together with 10 study male rats.
# During two estrous cycles, vaginal smear preparations were analyzed. Proestrus, estrus and metaestrum phases were detected. Presence of spermatozoa in vaginal smear preparations was registered as the first day of gestation. After 10 days, two subgroups of gestation female rats were formed from female rats in each of […] groups. Female rats of the first subgroups were sacrificed on 20th day of gestation. Amount of fetuses, resorption, implantation sites in the uterine cavity and yellow bodies of ovary were counted. Based on the obtained data, pre-implantation and post-implantation fetal death indexes were calculated according to the following equation: […]
# where N1—amount of yellow bodies, N2—amount of implantation sites
# where N1—amount of implantation sites N2—amount of viable fetuses.
# Further, fertility index (ratio between the amount of female rats housed together with male rats to the amount of female rats having spermatozoa in vaginal smear preparations) and gestation index (ratio between the amount of female rats having spermatozoa in vaginal smear preparations to the amount of animals with full-term pregnancy):
# where N1—amount of embryonate female rats N2—amount female rats housed together with male rats
# where N1—amount of gestation female rats N2—amount of embryonate female rats Pathological changes (subcutaneous hematomas and edemas, developmental defects of skeletal system and eye globes) were registered.
# The second groups of gestation female rats were allowed to parturiate under monitoring. Animals were weighed weekly and weight gain was registered. Parturition date, amount of babies in the brood and weight of babies were recorded. On 21st day after parturition, the survival rate and total and median weight of babies were measured.
# Wistar rats [2] = test: Reproductive function study, agents administered to male rats and female rats separately (Example 2); assay type: in vivo, rat; settings: for Amount of embryonate female rats: of 20 added females; for Amount of babies delivered by 1 female / Amount of dead fetuses / Amount of gestation female rats / Amount of implantation sites / Amount of resorptions / Amount of viable fetuses / Amount of yellow bodies / Carniocaudal size of fetus / Fertility index / Fetus body weight / Gestation index / Post-implantation loss / Postnatal loss after 3 weeks / Pre-implantation loss / Weight of newborn baby rats / Dynamics of infant body weight, 1st week / Dynamics of infant body weight, 2nd week / Dynamics of infant body weight, 3rd week / Dynamics of infant body weight, 4th week: 0.35 mg/kg
# Description: 180 male and female Wistar rats were studied in the experiments (initial body weight—180-200 g). The prototype agent and the agent of present invention in the clathrate complex form were administered intragastrically in amount of 0.35 mg/kg. Female group of 120 animals was broken into two subgroups: control group (80 animals) and study group (40 animals). The prototype agent and the agent of present invention in the clathrate complex form were intragastrically administered to female rats of study group once a day during 2 weeks (3-4 estrous cycles). Male group of 60 animals was broken into two subgroups: control group (40 animals) and study group (20 animals). The prototype agent and the agent of present invention in the clathrate complex form were intragastrically administered to male rats of study group daily during 10 weeks (2-3 cycles of spermatozoa maturation). Corresponding amounts of placebo comprised of vegetable oil or β-cyclodextrin were administered to animals of the control group with the same intervals. The placebo was chosen based on the fact that the prototype agent is an oil-soluble compound and the agent of present invention in the clathrate complex form is a water soluble compound. The drugs were administered once daily (at 10 a.m.).
# After administering the medication 6 groups of animals were formed: • the first (vegetable oil)—20 control female rats were housed together with 10 control male rats; • the second (β-cyclodextrin)—20 control female rats were housed together with 10 control male rats; • the third (the prototype, 0.35 mg/kg)—20 study female rats were housed together with 10 control male rats; • the fourth (the prototype, 0.35 mg/kg)—20 control female rats were housed together with 10 study male rats; • the fifth (the agent of present invention in the clathrate complex form 0.35 mg/kg)—20 study female rats were housed together with 10 control male rats; • the sixth (the agent of present invention in the clathrate complex form 0.35 mg/kg)—20 control female rats were housed together with 10 study male rats.
# A pre- and post-implantation fetal death indexes, fertility index and gestation index were calculated according to equations cited in Example 1.
# [3] = Solubility character of the agents; assay type: physicochemical
# [4] = 0.35 mg/kg intragastrically daily during 10 weeks
# [5] = 0.70 mg/kg intragastrically daily during 10 weeks
# [6] = administered to female rats, 2 weeks
# [7] = administered to male rats, 10 weeks
compound,measurement,setting,value
"c1ccc(C2C3=C(CCCC3)[Se]C3=C2CCCC3)cc1 [Prototype agent, 9-phenyl-sym-octahydroselenoxanthene]",Amount of gestation female rats,Wistar rats [1]; [4],13
same,Fertility index,Wistar rats [1]; [4],80%
same,Gestation index,Wistar rats [1]; [4],81%
same,Amount of embryonate female rats,Wistar rats [1]; [4],16
same,Amount of gestation female rats,Wistar rats [1]; [5],14
same,Fertility index,Wistar rats [1]; [5],85%
same,Gestation index,Wistar rats [1]; [5],82%
same,Amount of embryonate female rats,Wistar rats [1]; [5],17
same,Amount of babies delivered by 1 female,Wistar rats [1]; male rats 0.35 mg/kg,9.2 ± 1.1
same,Post-implantation loss,Wistar rats [1]; male rats 0.35 mg/kg,5.3%
same,Postnatal loss after 3 weeks,Wistar rats [1]; male rats 0.35 mg/kg,2.8%
same,Pre-implantation loss,Wistar rats [1]; male rats 0.35 mg/kg,5.1%
same,Weight of newborn baby rats,Wistar rats [1]; male rats 0.35 mg/kg,5.7 ± 0.9 g
same,"Dynamics of babies' body weight, 1st week",Wistar rats [1]; male rats 0.35 mg/kg,19.2 ± 1.1 g
same,"Dynamics of babies' body weight, 2nd week",Wistar rats [1]; male rats 0.35 mg/kg,25.2 ± 1.6 g
same,"Dynamics of babies' body weight, 3rd week",Wistar rats [1]; male rats 0.35 mg/kg,45.7 ± 1.2 g
same,"Dynamics of babies' body weight, 4th week",Wistar rats [1]; male rats 0.35 mg/kg,60.4 ± 1.9 g
same,Craniocaudal size of fetus,Wistar rats [1]; male rats 0.35 mg/kg,33 ± 2 mm
same,Fetus weight,Wistar rats [1]; male rats 0.35 mg/kg,3.3 ± 0.2 g
same,Amount of dead fetuses,Wistar rats [1]; male rats 0.35 mg/kg,0
same,Amount of implantation sites,Wistar rats [1]; male rats 0.35 mg/kg,13.1 ± 1.0
same,Amount of resorptions,Wistar rats [1]; male rats 0.35 mg/kg,0.6 ± 0.2
same,Amount of viable fetuses,Wistar rats [1]; male rats 0.35 mg/kg,12.4 ± 0.8
same,Amount of yellow bodies,Wistar rats [1]; male rats 0.35 mg/kg,13.8 ± 1.2
same,Amount of babies delivered by 1 female,Wistar rats [1]; male rats 0.70 mg/kg,9.0 ± 1.2
same,Post-implantation loss,Wistar rats [1]; male rats 0.70 mg/kg,4.8%
same,Postnatal loss after 3 weeks,Wistar rats [1]; male rats 0.70 mg/kg,2.8%
same,Pre-implantation loss,Wistar rats [1]; male rats 0.70 mg/kg,5.3%
same,Weight of newborn baby rats,Wistar rats [1]; male rats 0.70 mg/kg,5.8 ± 1.0 g
same,"Dynamics of babies' body weight, 1st week",Wistar rats [1]; male rats 0.70 mg/kg,19.1 ± 0.8 g
same,"Dynamics of babies' body weight, 2nd week",Wistar rats [1]; male rats 0.70 mg/kg,25.3 ± 1.2 g
same,"Dynamics of babies' body weight, 3rd week",Wistar rats [1]; male rats 0.70 mg/kg,44.7 ± 1.5 g
same,"Dynamics of babies' body weight, 4th week",Wistar rats [1]; male rats 0.70 mg/kg,59.8 ± 2.4 g
same,Craniocaudal size of fetus,Wistar rats [1]; male rats 0.70 mg/kg,33 ± 1 mm
same,Fetus weight,Wistar rats [1]; male rats 0.70 mg/kg,3.3 ± 0.1 g
same,Amount of dead fetuses,Wistar rats [1]; male rats 0.70 mg/kg,0
same,Amount of implantation sites,Wistar rats [1]; male rats 0.70 mg/kg,12.5 ± 1.0
same,Amount of resorptions,Wistar rats [1]; male rats 0.70 mg/kg,0.5 ± 0.2
same,Amount of viable fetuses,Wistar rats [1]; male rats 0.70 mg/kg,11.9 ± 0.7
same,Amount of yellow bodies,Wistar rats [1]; male rats 0.70 mg/kg,13.2 ± 0.9
same,Amount of embryonate female rats,"Wistar rats [2]; administered to female rats, 0.35 mg/kg intragastrically once a day during 2 weeks",16
same,Amount of babies delivered by 1 female,Wistar rats [2]; [6],8.6 ± 0.9
same,Amount of dead fetuses,Wistar rats [2]; [6],0
same,Amount of gestation female rats,Wistar rats [2]; [6],14
same,Amount of implantation sites,Wistar rats [2]; [6],9.9 ± 0.6
same,Amount of resorptions,Wistar rats [2]; [6],0.4 ± 0.2
same,Amount of viable fetuses,Wistar rats [2]; [6],9.2 ± 1.1
same,Amount of yellow bodies,Wistar rats [2]; [6],10.7 ± 0.7
same,Carniocaudal size of fetus,Wistar rats [2]; [6],35 ± 2 mm
same,Fertility index,Wistar rats [2]; [6],80%
same,Fetus body weight,Wistar rats [2]; [6],3.4 ± 0.2 g
same,Gestation index,Wistar rats [2]; [6],88%
same,Post-implantation loss,Wistar rats [2]; [6],7.1%
same,Postnatal loss after 3 weeks,Wistar rats [2]; [6],2.5%
same,Pre-implantation loss,Wistar rats [2]; [6],7.5%
same,Weight of newborn baby rats,Wistar rats [2]; [6],6.2 ± 0.9 g
same,"Dynamics of infant body weight, 1st week",Wistar rats [2]; [6],18.8 ± 1.2 g
same,"Dynamics of infant body weight, 2nd week",Wistar rats [2]; [6],26.3 ± 1.5 g
same,"Dynamics of infant body weight, 3rd week",Wistar rats [2]; [6],47.4 ± 2.0 g
same,"Dynamics of infant body weight, 4th week",Wistar rats [2]; [6],61.5 ± 2.8 g
same,Amount of embryonate female rats,"Wistar rats [2]; administered to male rats, 0.35 mg/kg intragastrically daily during 10 weeks",17
same,Amount of babies delivered by 1 female,Wistar rats [2]; [7],8.7 ± 0.8
same,Amount of dead fetuses,Wistar rats [2]; [7],0
same,Amount of gestation female rats,Wistar rats [2]; [7],15
same,Amount of implantation sites,Wistar rats [2]; [7],10.1 ± 1.1
same,Amount of resorptions,Wistar rats [2]; [7],0.4 ± 0.2
same,Amount of viable fetuses,Wistar rats [2]; [7],9.4 ± 1.0
same,Amount of yellow bodies,Wistar rats [2]; [7],10.8 ± 0.8
same,Carniocaudal size of fetus,Wistar rats [2]; [7],35 ± 1 mm
same,Fertility index,Wistar rats [2]; [7],85%
same,Fetus body weight,Wistar rats [2]; [7],3.5 ± 0.2 g
same,Gestation index,Wistar rats [2]; [7],88%
same,Post-implantation loss,Wistar rats [2]; [7],6.9%
same,Postnatal loss after 3 weeks,Wistar rats [2]; [7],2.6%
same,Pre-implantation loss,Wistar rats [2]; [7],6.5%
same,Weight of newborn baby rats,Wistar rats [2]; [7],6.4 ± 1.2 g
same,"Dynamics of infant body weight, 1st week",Wistar rats [2]; [7],20.1 ± 0.9 g
same,"Dynamics of infant body weight, 2nd week",Wistar rats [2]; [7],27.2 ± 1.5 g
same,"Dynamics of infant body weight, 3rd week",Wistar rats [2]; [7],45.9 ± 1.9 g
same,"Dynamics of infant body weight, 4th week",Wistar rats [2]; [7],61.9 ± 2.6 g
same,Solubility (oil-soluble / water soluble),[3],oil-soluble
